# ChEMBL document CHEMBL3797052 (Eur J Med Chem, 2016)
# Tested on: MDA-MB-468
# Experiment: Antiproliferative activity against human MDA-MB-468 cells assessed as growth inhibition after 48 hrs by sulforhodamine B assay
# Format: functional
# Conditions: MDA-MB-468, 48 h
Compound,GI50,TGI
CNC(=O)c1cc(Oc2ccc(NC(=O)Nc3ccc(Cl)c(C(F)(F)F)c3)cc2)ccn1 [SORAFENIB],2000 nM,7.94 µM

# Same assay, conditions: MDA-MB-468, 48 h, read-out: LC50 (the source's name)
row,Compound,CC50
1,CNC(=O)c1cc(Oc2ccc(NC(=O)Nc3ccc(Cl)c(C(F)(F)F)c3)cc2)ccn1 [SORAFENIB],39.8 µM

# Tested on: HT-29
# Experiment: Antiproliferative activity against human HT-29 cells assessed as growth inhibition after 48 hrs by sulforhodamine B assay
# Format: functional
# Conditions: HT-29, 48 h
Compound,GI50,TGI
CNC(=O)c1cc(Oc2ccc(NC(=O)Nc3ccc(Cl)c(C(F)(F)F)c3)cc2)ccn1 [SORAFENIB],2000 nM,7.94 µM

# Tested on: not listed separately
# Experiment: Antiproliferative activity against human OVCAR5 cells assessed as growth inhibition after 48 hrs by sulforhodamine B assay
# Format: functional
# Conditions: OVCAR-5, 48 h
Compound,GI50,TGI
CNC(=O)c1cc(Oc2ccc(NC(=O)Nc3ccc(Cl)c(C(F)(F)F)c3)cc2)ccn1 [SORAFENIB],3.16 µM,20 µM

# Same assay, conditions: OVCAR-5, 48 h, read-out: LC50 (the source's name)
row,Compound,CC50
1,CNC(=O)c1cc(Oc2ccc(NC(=O)Nc3ccc(Cl)c(C(F)(F)F)c3)cc2)ccn1 [SORAFENIB],79.4 µM

# Tested on: not listed separately
# Experiment: Antiproliferative activity against human IGROV1 cells assessed as growth inhibition after 48 hrs by sulforhodamine B assay
# Format: functional
# Conditions: IGROV-1, 48 h
Compound,GI50,TGI
CNC(=O)c1cc(Oc2ccc(NC(=O)Nc3ccc(Cl)c(C(F)(F)F)c3)cc2)ccn1 [SORAFENIB],2510 nM,15.9 µM

# Same assay, conditions: IGROV-1, 48 h, read-out: LC50 (the source's name)
row,Compound,CC50
1,CNC(=O)c1cc(Oc2ccc(NC(=O)Nc3ccc(Cl)c(C(F)(F)F)c3)cc2)ccn1 [SORAFENIB],79.4 µM

# Tested on: not listed separately
# Experiment: Antiproliferative activity against human LOXIMVI cells assessed as growth inhibition after 48 hrs by sulforhodamine B assay
# Format: functional
# Conditions: LOX IMVI
row,Compound,TGI
1,CNC(=O)c1cc(Oc2ccc(NC(=O)Nc3ccc(Cl)c(C(F)(F)F)c3)cc2)ccn1 [SORAFENIB],3.16 µM

# Same assay, conditions: LOX IMVI, read-out: LC50 (the source's name)
row,Compound,CC50
1,CNC(=O)c1cc(Oc2ccc(NC(=O)Nc3ccc(Cl)c(C(F)(F)F)c3)cc2)ccn1 [SORAFENIB],7.94 µM

# Tested on: not listed separately
# Experiment: Antiproliferative activity against human BT549 cells assessed as growth inhibition after 48 hrs by sulforhodamine B assay
# Format: functional
# Conditions: BT-549, 48 h
Compound,GI50,TGI
CNC(=O)c1cc(Oc2ccc(NC(=O)Nc3ccc(Cl)c(C(F)(F)F)c3)cc2)ccn1 [SORAFENIB],3.16 µM,5.01 µM

# Same assay, conditions: BT-549, 48 h, read-out: LC50 (the source's name)
row,Compound,CC50
1,CNC(=O)c1cc(Oc2ccc(NC(=O)Nc3ccc(Cl)c(C(F)(F)F)c3)cc2)ccn1 [SORAFENIB],15.8 µM
